In patent US20230303552A1, “ARYLSULFONYL DERIVATIVES AND THEIR USE AS MUSCARINIC ACETYLCHOLINE RECEPTOR M5 INHIBITORS” (Vanderbilt University, priority 2020, published 2023):

Molecular target: T1, human M5 receptors (hM5) (Homo sapiens, UniProt P08912)
T1 construct: expressed in transfected cells
T1 sequence (P08912 1-532): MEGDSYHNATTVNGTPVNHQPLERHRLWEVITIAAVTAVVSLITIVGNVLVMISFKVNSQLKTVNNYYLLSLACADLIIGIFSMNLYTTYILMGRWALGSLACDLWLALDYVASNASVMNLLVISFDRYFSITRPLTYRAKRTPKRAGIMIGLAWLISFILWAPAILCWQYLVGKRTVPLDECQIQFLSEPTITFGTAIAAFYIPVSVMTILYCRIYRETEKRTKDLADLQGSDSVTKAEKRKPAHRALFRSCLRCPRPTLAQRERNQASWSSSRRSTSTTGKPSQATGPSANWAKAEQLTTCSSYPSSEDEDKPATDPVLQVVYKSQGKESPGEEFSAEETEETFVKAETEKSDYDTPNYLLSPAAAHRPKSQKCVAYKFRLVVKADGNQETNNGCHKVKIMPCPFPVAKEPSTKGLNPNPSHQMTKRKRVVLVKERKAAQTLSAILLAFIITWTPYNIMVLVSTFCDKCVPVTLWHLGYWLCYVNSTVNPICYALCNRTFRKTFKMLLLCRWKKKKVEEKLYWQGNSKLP
Test: Cell-based functional calcium mobilization assay of mAChR M5 activity (inhibition of EC80 acetylcholine response) in CHO cells
Details: CHO cells stably expressing hM5; for IC50: calcium flux (Fluo-4), EC80 acetylcholine addition; for EC80 MIN: minimum of EC80 acetylcholine response, normalized to maximum acetylcholine response
Summary of the method: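 CHO cells stably expressing human M5, loaded with Fluo-4 AM in HBSS/20 mM HEPES/2.5 mM probenecid pH 7.4. Compound added 140 s before acetylcholine EC20, then EC80 added 125 s later. Calcium flux normalized to maximal acetylcholine response; IC50 from ten-point curves in the EC80 window.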

IC50 [µM]	EC80 MIN [%]	Structure (SMILES)
> 10	24	CC1(C(=O)Nc2ccc3scnc3c2)CCN(S(=O)(=O)c2cccc3nsnc23)CC1 [Compound 107, 1-(benz.o[c][1.2.5]thiadiazol-4-ylsulfony1)-N-(benzo[d]thiazol-5-yl)-4-methylpiperidine-4-carboxamide]
> 10	22	O=C(Nc1ccc2scnc2c1)C1(F)CCN(S(=O)(=O)c2ccc3ncsc3c2)CC1 [Compound 108]
> 10	9	Cc1nn(C)cc1S(=O)(=O)N1CCC(F)(C(=O)Nc2ccc3scnc3c2)CC1 [Compound 109, N-(benzo[d]thiazol-5-yl]-1-((1,3-dimethyl-1H-pyrazol-4-yl)sulfonyl)-4-fluoropiperidine-4-carboxamide]
> 10	53	Cn1cnc2cc(NC(=O)C3CCN(S(=O)(=O)c4ccc5c(c4)CCO5)CC3)ccc21 [Compound 110, 1-((2,3-dihydrobenzofuran-5-yl)sulfonyl)-N-(1-methyl-1H-benzo[d]imidazol-5-yl)piperidine-4-carboxamide]
0.038	3	C[C@@H]1CN(S(=O)(=O)c2ccc3c(c2)CCO3)C[C@@H]1C(=O)Nc1ccc2scnc2c1 [Compound 111, (3R,4S)-N-(benzo[d]thiazol-5-yl)-1-((2,3-dihydrobenzofuran-5-yl)sulfonyl)-4-methylpyrrolidine-3-carboxamide]
> 10	58	Cc1nn(C)cc1S(=O)(=O)N1CCC(C)(C(=O)Nc2ccc3scnc3c2)CC1 [Compound 112, N-(benzo[d]thiazol-5-yl)-1-((1,3-dimethyl-1H-pyrazol-4-yl)sulfonyl)-4-methylpiperidine-4-carboxamide]
0.712	10	O=C(Nc1ccc2scnc2c1)C1(F)CCN(S(=O)(=O)c2ccc3c(c2)CCO3)CC1 [Compound 113, N-(benzo[d]thiazol-5-yl)-1-((2.3-dihydrobenzofuran-5-yl)sulfonyl)-4-fluoropiperidine-4-carboxamide]
2.04	4	O=C(Nc1ccc2scnc2c1)C1(F)CCN(S(=O)(=O)c2cccnc2)CC1 [Compound 114, N-(benzo[d]thiazol-5-yl)-4-fluoro-1-(pyridin-3-ylsulfonyl)piperidine-4-carboxamide]
> 10	51	O=C(Nc1ccc2scnc2c1)C1(F)CCN(S(=O)(=O)c2cccc3nsnc23)CC1 [Compound 115, 1-(benzo[c][1,2,5]thiadiazol-4-ylsulfonyl)-N-(benzo[d]thiazol-5-yl)-4-fluoropiperidine-4-carboxamide]
0.105	3	Cc1ccc(S(=O)(=O)N2CCC(C(=O)Nc3ccc4scnc4c3)CC2)cn1 [Compound 124]
> 10	55	CC1(C)COc2ccc(S(=O)(=O)N3CCC(C(=O)Nc4ccc5scnc5c4)CC3)cc21 [Compound 126, N-(benzo[d]thiazol-5-yl)-1-((3,3-dimethyl-2,3-dihydrobenzofuran-5-yl)sulfonyl)piperidine-4-carboxamide]
> 10	8	CC1(C)COc2ccc(S(=O)(=O)N3CC[C@@H](C(=O)Nc4ccc5scnc5c4)C3)cc21 [Compound 127, (R)-N-(benzo[d]thiazol-5-yl)-1-((3,3-dimethyl-2,3-dihydrobenzofuran-5-yl)sulfonyl)pyrrolidine-3-carboxamide]
> 10	29	C[C@H]1CN(S(=O)(=O)c2ccc3c(c2)C(C)(C)CO3)C[C@@H]1C(=O)Nc1ccc2scnc2c1 [Compound 128, (3R,4R)-N-(benzo[d]thiazol-5-yl)-1-((3,3-dimethyl-2,3-dihydrobenzofuran-5-yl)sulfonyl)-4-methylpyrrolidine-3-carboxamide]
6.49	4	C[C@@H]1CN(S(=O)(=O)c2ccc3c(c2)C(C)(C)CO3)C[C@@H]1C(=O)Nc1ccc2scnc2c1 [Compound 129]
1.8	3	O=C(Nc1ccc2cccnc2c1)C1CCN(S(=O)(=O)c2ccc3c(c2)CCO3)CC1 [Compound 135, 1-((2,3-dihydrobenzofuran-5-yl)sulfonyl)-N-(quinolin-7-yl)pipcridinc-4-carboxamide]
0.29	2	O=C(Nc1ccc2scnc2c1)[C@@H]1CCN(S(=O)(=O)c2ccc3ncsc3c2)C1 [Compound 136, (R)-N-(benzo[d]thiazol-5-yl)-1-(benzo[d]thiazol-6-ylsulfonyl)pyrrolidine-3-carboxamide]

IC50 [µM]	EC80 MIN [%]	Structure (SMILES)
> 10	6	Cc1nn(C)cc1S(=O)(=O)N1CC[C@@H](C(=O)Nc2ccc3scnc3c2)C1 [Compound 137, (R)-N-(benzo[d]thiazol-5-yl)-1-((1,3-dimethyl-1H-pyrazol-4-yl)sulfonyl)pyrrolidine-3-carboxamide]
> 10	7	CC1(C)CN(S(=O)(=O)c2ccc3c(c2)CCO3)CCC1C(=O)Nc1ccc2scnc2c1 (stereo not shown) [Compound 138, N-(benzo[d]thiazol-5-yl)-1-((2,3-dihydrobenzofuran-5-yl)sulfonyl)-3,3-dimethylpiperidine-4-carboxamide]
0.076	2	[2H]C1([2H])Oc2ccc(S(=O)(=O)N3CCC(C(=O)Nc4ccc5scnc5c4)CC3)cc2C1([2H])[2H] [Compound 139, N-(benzo[d]thiazol-5-yl)-1-((2,3-dihydrobenzofuran-5-yl-2,2,3,3-d4)sulfonyl)piperidine-4-carboxamide]
0.035	2	[2H]C1([2H])Oc2ccc(S(=O)(=O)N3CC[C@@H](C(=O)Nc4ccc5scnc5c4)C3)cc2C1([2H])[2H] [Compound 140]
> 10	38	CC1(C)CN(S(=O)(=O)c2ccc3ncsc3c2)CCC1C(=O)Nc1ccc2scnc2c1 (stereo not shown) [Compound 141, N-(benzo[d]thiazol-5-yl)-1-(benzo[d]thiazol-6-ylsulfonyl)-3,3-dimethylpiperidine-4-carboxamide]
4.44	3	CC1(C)CN(S(=O)(=O)c2ccc(Cl)nc2)CCC1C(=O)Nc1ccc2scnc2c1 (stereo not shown) [Compound 142]
> 10	40	Cc1nn(C)cc1S(=O)(=O)N1CCC(C(=O)Nc2ccc3scnc3c2)C(C)(C)C1 (stereo not shown) [Compound 143, N-(benzo[d]thiazol-5-yl)-1-((1,3-dimethyl-1H-pyrazol-4-yl)sulfonyl)-3,3-dimethylpiperidine-4-carboxamide]
> 10	25	CC1(C)CN(S(=O)(=O)c2cc3c(cc2F)OCC3)CCC1C(=O)Nc1ccc2scnc2c1 (stereo not shown) [Compound 144, N-(benzo[d]thiazol-5-yl)-1-((6-fluoro-2,3-dihydrobenzofuran-5-yl)sulfonyl)-3,3-dimethylpiperidine-4-carboxamide]
0.404	2	O=C(Nc1ccc2scnc2c1)C1CCN(S(=O)(=O)c2cc3c(cc2F)OCC3)CC1(F)F (stereo not shown) [Compound 147, N-(benzo[d]thiazol-5-yl)-3,3-difluoro-1-((6-fluoro-2.3-dihydrobenzofuran-5-yl)sulfonyl)piperidine-4-carboxamide]
0.03	3	[2H]C1([2H])Oc2ccc(S(=O)(=O)N3C[C@@H](C)[C@@H](C(=O)Nc4ccc5scnc5c4)C3)cc2C1([2H])[2H] [Compound 148, (3R,4S)-N-(benzo[d]thiazol-5-yl)-1-((2,3-dihydrobenzofuran-5-yl-2,2,3,3-d4)sulfonyl)-4-methylpyrrolidine-3-carboxamide]
> 10	36	Cc1noc2ncc(S(=O)(=O)N3CC[C@@H](C(=O)Nc4ccc5scnc5c4)C3)cc12 [Compound 149, (R)-N-(benzuo[d]thiazo1-5-yl)-1-((3-methylisoxazolo[5,4-b]pyridin-5-yl)sulfonyl)pyrrolidine-3-carboxamide]
> 10		O=C(Nc1ccc2scnc2c1)[C@@H]1CCN(S(=O)(=O)c2ccc3c(c2)CCC3)C1 [Compound 150, (R)-N-(benzo[d]thiazol-5-yl)-1-((2,3-dihydro-1H-inden-5-yl)sulfonyl)pyrrolidine-3-carboxamide]
3.84	5	Cc1noc(C)c1S(=O)(=O)N1CC[C@@H](C(=O)Nc2ccc3scnc3c2)C1 [Compound 151, (R)-N-(benzo[d]thiazo1-5-yl)-1-((3,5-dimethylisoxazol-4-yl)sulfonyl)pyrrolidine-3-carboxamide]
0.352	3	O=C(Nc1ccc2scnc2c1)[C@@H]1CCN(S(=O)(=O)c2ccc3ncccc3c2)C1 [Compound 152, (R)-N-(benzo[d]thiazol-5-yl)-1-(quinolin-6-ylsulfonyl)pyrrolidine-3-carboxamide]
1.47	3	COc1ccc(S(=O)(=O)N2CC[C@@H](C(=O)Nc3ccc4scnc4c3)C2)c(C)c1 [Compound 153, (R)-N-(benzo[d]thiazo1-5-yl)-1-((4-methoxy-2-methylphenyl)sulfonyl)pyrr olidine-3-carboxarnide]
